# Assay results as given in ChEMBL document CHEMBL1201862, “PubChem BioAssay data set” (2004).
# Activity calls are given as the source filed them.
# Assays:
# [1] = biological target: E3 ubiquitin-protein ligase Mdm2 (Homo sapiens, UniProt Q00987); assay: MDM2-luc reporter signal enhancers, multi-concentration potency testing, MDM2 ubiquitin-protein ligase inhibitor program, whole-cell format, luminescence detection, 384-well microplate (AID 1394); type: functional;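 note: MDM2 E3 inhibitors raise luminescence so EC50 is for signal enhancement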
# [2] = viability of uninfected HEp-2 cells – cell-based, HTS, cytotoxicity control for RSV inhibitor project, dose response (AID 2410); type: functional; details: human respiratory syncytial virus
# cells [3] = assay: cells
# [4] = biological target: T1, Tyrosine-protein phosphatase non-receptor type 7 (Homo sapiens, UniProt P35236); assay: HePTP tyrosine phosphatase activity blockers – biochemical, absorbance, leukemia target, primary screen (AID 521); type: functional
# T1 sequence (P35236 whole entry): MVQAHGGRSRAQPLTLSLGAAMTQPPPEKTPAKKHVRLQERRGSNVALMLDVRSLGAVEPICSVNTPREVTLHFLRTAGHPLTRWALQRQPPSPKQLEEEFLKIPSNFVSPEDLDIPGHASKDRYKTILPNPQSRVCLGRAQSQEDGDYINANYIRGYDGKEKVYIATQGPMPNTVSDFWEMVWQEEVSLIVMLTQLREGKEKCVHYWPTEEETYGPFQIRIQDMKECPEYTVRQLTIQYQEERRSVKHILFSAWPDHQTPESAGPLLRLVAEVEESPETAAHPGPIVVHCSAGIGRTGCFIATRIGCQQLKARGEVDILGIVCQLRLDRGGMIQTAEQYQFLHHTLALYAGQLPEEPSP
# BJ [5] = assay: BJ-TERT fibroblast viability loss – cell-based, RAS-independent, luminescence, dose response (AID 1933); type: functional; details: Homo sapiens
# [6] = biological target: T2, Heat shock factor protein 1 (Mus musculus, UniProt P38532); assay: decrease of HSF1-responsive luciferase luminescence – cell-based, NIH3T3, dose retest, confirmation (AID 2382); type: functional;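 note: NIH3T3 fibroblasts with HSF1-driven luciferase reporter stressed by proteasome inhibitor MG132; luminescence from HSF1-driven luciferase expression after 8 hours of MG132 stress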
# T2 sequence (P38532 whole entry): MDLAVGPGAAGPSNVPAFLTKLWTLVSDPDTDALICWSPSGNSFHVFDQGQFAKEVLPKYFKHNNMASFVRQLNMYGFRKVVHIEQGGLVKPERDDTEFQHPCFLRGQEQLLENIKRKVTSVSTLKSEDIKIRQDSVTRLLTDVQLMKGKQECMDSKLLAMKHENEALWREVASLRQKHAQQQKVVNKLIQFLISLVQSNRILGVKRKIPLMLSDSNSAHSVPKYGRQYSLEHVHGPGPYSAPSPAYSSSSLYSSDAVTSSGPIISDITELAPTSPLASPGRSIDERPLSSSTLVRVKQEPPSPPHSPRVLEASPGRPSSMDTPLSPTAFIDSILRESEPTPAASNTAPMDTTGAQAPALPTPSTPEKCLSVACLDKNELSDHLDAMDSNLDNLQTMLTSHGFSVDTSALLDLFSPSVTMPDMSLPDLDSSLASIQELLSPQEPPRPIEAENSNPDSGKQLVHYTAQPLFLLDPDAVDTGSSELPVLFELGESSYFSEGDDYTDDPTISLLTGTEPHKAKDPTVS
# BJ [7] = assay: cells; type: functional, cell-based; details: Homo sapiens
# BJ [8] = assay: BJ-TERT-LT-ST fibroblast viability loss – cell-based, RAS-independent, luminescence, dose response (AID 1935); type: functional; details: Homo sapiens;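 note: BJ fibroblasts immortalized with TERT plus LT and ST oncogenes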
# [9] = DRD fibroblast viability loss – cell-based, non-viral oncogenic, luminescence, dose response (AID 1934); type: functional; details: Homo sapiens
# [10] = HEK-293T viability loss after treatment – luminescence, T-cell screen hits, cytotoxicity control for TCR NF-kB inhibitor project, dose response (AID 489026); type: functional, cell-based;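 note: cells exposed to compound about 14 hours before the viability readout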
# [11] = reduction of Shn3 3'UTR-driven luciferase in osteoblasts – cell-based, Clone20 osteoblasts, firefly luciferase, cherry-picked, dose response (AID 624132); type: functional;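 note: firefly luciferase luminescence from reporter carrying the Shn3 3'UTR in osteoblasts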
# [12] = loss of viability in HepG2 cells – cell-based, CellTiter-Glo, cherry-picked, cytotoxicity control for Shn3 inhibitor project, dose response (AID 624134); type: functional
# [13] = non-specific 3'UTR reporter inhibition in Clone20-Shn3RL – cell-based, Renilla luciferase, cherry-picked, counter-screen for Shn3 inhibitor project, dose response (AID 624133); type: functional
# Ephrin type-A receptor 4 = Ephrin type-A receptor 4 (Mus musculus, UniProt Q03137); assay: EphA4 ligand-binding antagonists – biochemical, colorimetric, mouse EphA4, primary screen (AID 689); type: functional
# [14] = biological target: T3, Corticotropin-releasing factor receptor 2/Corticotropin-releasing factor-binding protein (Homo sapiens, UniProt P24387+Q13324); assay: activators of CRF receptor 2 with binding protein – uHTS hits, confirmation (AID 602473); type: functional; details: read-out: EC50_Mean
# T3 sequence (Q13324 whole entry): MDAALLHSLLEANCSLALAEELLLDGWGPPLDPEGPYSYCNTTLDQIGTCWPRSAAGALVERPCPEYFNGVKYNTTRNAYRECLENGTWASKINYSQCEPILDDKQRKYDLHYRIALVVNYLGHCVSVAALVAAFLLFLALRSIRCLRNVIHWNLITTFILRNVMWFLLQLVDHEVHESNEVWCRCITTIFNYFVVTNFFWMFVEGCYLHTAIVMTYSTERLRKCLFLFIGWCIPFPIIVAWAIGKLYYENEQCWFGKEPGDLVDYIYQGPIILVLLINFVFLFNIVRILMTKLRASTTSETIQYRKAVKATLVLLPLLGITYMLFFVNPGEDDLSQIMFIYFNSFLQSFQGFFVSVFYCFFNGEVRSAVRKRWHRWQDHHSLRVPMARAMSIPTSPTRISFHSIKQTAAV
# T3 sequence (P24387 whole entry): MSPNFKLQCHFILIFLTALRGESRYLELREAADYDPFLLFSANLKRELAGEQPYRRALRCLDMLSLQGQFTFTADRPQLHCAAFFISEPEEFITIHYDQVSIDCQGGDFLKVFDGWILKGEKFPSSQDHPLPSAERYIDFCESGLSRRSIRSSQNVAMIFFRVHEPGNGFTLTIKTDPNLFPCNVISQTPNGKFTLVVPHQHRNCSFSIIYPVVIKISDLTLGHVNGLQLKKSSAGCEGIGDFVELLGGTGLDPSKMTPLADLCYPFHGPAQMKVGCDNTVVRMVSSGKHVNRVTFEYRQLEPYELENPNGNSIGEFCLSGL
# Vasopressin V1a receptor = Vasopressin V1a receptor (Homo sapiens, UniProt P37288); assay: Counterscreen for Oxytocin Receptor (OXTR) agonists: Fluorescence-based cell-based high throughput dose response assay to identify agonists of the vasopressin 1 receptor (V1R). [Related pubchem assays: 2435 (Primary screen (OXTR agonists in singlicate)), 434991 (Counterscreen (V1R agonists in triplicate)), 2482 (Summary (OXTR agonists)) …; type: functional
# Oxytocin receptor = Oxytocin receptor (Homo sapiens, UniProt P30559); assay: Fluorescence-based cell-based high throughput dose response assay for agonists of the Oxytocin Receptor (OXTR). [Related pubchem assays: 2435 (Primary screen (OXTR agonists in singlicate)), 434991 (Counterscreen (V1R agonists in triplicate)), 2482 (Summary (OXTR agonists)), 434963 (Confirmation screen (OXTR agonists in triplicate))]; type: functional
# INS1 = assay: INS-1E survival protection against cytokine death – cell-based, luminescence, retest, dose response (AID 449756); type: functional; details: Rattus norvegicus;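 note: cell death triggered by IL-1 beta plus TNF-alpha plus IFN-gamma mixture; protective hits raise ATP signal compared with cytokine alone wells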
# [15] = Luminescence Cell-Based Dose Response to Identify Activators of 5'UTR Stem-Loop Driven Prion Protein mRNA Translation in H4-C Neuroglioblastoma Cells. [Related pubchem assays: 1829 (Project Summary), 1814 (Primary HTS)]; type: functional
# [16] = Luminescence Cell-Based Dose Confirmation HTS to Identify Activators of 5'UTR Stem-Loop Driven Alpha-Synuclein mRNA Translation in H4 Neuroglioblastoma Cells. [Related pubchem assays: 1829 (Project Summary), 1814 (Primary HTS)]; type: functional
# [17] = Luminescence Cell-Based Dose Response HTS to Identify Activators of Luciferase Translation or Activity in H4 […] Cells. [Related pubchem assays: 1829 (Project Summary), 1814 (Primary HTS)]; type: functional
# H4 = assay: Luminescence Cell-Based Dose Response HTS to Identify Activators of 5'UTR Stem-Loop Driven Prion Protein mRNA Translation in H4 Neuroglioblastoma Cells. [Related pubchem assays: 1829 (Project Summary), 1814 (Primary HTS)]; type: functional; details: Homo sapiens
# [18] = Luminescence Cell-Based Dose Response to Identify Activators of Luciferase Translation or Activity in H4-C Neuroglioblastoma Cells. [Related pubchem assays: 1829 (Project Summary), 1814 (Primary HTS)]; type: functional
# [19] = microbe, parasite or virus in culture; type: functional; details: Mycobacterium tuberculosis
# [20] = Luminescence Cell-Based Dose Confirmation to Identify Activators of 5'UTR Stem-Loop Driven Alpha-Synuclein mRNA Translation in H4 Neuroglioblastoma Cells. [Related pubchem assays: 1829 (Project Summary), 1814 (Primary HTS)]; type: functional
# [21] = HGIII-sPLA2 enzyme inhibition potency – biochemical, QFRET, IC50, dose response (AID 743457);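 note: green fluorescence rise as the enzyme cleaves BODIPY PC-A2 in liposomes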
# [22] = biological target: T4, Oxysterols receptor LXR-beta (Homo sapiens, UniProt P55055); type: functional, cell-based;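 note: Cell-based luminescence dose-response assay of agonist activity at LXR, run as a confirmatory counterscreen to a daf-12 agonist screen; HEK293 cells with Gal4-LXR fusion and GAL4-driven luciferase reporter; agonist potency from rising luciferase signal of a Gal4-LXR reporter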
# T4 sequence (P55055 whole entry): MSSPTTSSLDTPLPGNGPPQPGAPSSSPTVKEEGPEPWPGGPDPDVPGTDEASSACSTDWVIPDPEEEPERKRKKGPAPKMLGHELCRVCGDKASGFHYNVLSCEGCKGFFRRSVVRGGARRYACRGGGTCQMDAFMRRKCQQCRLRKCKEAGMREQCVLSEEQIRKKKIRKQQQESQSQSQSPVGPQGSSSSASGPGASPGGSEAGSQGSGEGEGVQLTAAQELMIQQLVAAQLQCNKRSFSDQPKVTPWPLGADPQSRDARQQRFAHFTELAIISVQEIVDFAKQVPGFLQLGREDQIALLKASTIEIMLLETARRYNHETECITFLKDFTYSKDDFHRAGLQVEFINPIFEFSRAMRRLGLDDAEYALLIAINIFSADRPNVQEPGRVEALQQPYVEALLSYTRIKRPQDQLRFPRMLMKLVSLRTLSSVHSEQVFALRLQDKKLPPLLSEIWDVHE
# cells [23] = assay: cells; remark: listed apart in the source
# E3 ubiquitin-protein ligase Mdm2, sequence (Q00987 whole entry): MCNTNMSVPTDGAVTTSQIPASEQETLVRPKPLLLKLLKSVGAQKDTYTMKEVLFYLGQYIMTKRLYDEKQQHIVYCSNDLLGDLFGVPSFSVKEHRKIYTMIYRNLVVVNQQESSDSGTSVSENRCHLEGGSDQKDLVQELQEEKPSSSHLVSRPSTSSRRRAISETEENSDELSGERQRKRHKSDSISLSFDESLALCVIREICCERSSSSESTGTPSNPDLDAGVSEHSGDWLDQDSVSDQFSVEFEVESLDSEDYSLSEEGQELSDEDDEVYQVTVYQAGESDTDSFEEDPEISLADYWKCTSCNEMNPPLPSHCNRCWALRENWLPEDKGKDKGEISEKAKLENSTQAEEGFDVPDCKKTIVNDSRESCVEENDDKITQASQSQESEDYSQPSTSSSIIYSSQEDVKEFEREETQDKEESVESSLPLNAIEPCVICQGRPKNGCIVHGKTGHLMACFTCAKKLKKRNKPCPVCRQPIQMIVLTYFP
# Ephrin type-A receptor 4, sequence (Q03137 whole entry): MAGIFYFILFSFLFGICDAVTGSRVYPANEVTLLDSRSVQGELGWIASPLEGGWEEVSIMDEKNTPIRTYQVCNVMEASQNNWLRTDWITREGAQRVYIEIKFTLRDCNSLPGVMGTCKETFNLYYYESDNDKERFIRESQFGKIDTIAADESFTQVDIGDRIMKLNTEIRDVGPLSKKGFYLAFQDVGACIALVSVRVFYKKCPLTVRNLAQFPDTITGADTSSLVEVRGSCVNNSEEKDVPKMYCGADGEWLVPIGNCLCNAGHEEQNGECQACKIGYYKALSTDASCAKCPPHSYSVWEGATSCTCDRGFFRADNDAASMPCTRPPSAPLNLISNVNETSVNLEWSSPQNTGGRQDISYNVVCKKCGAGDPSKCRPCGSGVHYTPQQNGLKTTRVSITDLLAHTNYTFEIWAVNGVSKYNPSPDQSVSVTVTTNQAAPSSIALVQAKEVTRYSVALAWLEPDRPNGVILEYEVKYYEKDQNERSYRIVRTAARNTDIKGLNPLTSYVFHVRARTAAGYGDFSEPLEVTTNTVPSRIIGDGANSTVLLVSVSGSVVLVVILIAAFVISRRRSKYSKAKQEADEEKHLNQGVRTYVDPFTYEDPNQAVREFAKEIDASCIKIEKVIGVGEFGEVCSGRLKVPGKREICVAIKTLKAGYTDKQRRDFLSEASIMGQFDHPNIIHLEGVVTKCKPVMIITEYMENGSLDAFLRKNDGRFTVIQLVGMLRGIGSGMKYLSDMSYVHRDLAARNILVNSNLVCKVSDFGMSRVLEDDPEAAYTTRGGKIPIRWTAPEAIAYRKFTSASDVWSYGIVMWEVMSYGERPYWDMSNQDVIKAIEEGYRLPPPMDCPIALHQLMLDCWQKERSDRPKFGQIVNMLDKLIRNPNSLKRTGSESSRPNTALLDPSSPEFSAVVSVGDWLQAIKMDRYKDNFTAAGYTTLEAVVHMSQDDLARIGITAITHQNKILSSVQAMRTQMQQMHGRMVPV
# Vasopressin V1a receptor, sequence (P37288 whole entry): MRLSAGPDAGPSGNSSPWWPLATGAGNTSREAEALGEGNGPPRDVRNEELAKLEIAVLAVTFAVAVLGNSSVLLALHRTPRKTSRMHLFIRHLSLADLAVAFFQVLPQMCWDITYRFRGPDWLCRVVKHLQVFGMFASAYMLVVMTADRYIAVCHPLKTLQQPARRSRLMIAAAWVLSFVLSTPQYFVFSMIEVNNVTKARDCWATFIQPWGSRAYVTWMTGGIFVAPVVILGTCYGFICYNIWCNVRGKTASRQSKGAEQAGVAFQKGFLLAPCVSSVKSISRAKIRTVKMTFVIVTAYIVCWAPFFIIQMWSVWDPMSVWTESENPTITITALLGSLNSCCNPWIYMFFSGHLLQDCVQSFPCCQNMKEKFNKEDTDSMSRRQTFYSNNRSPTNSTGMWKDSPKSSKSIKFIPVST
# Oxytocin receptor, sequence (P30559 whole entry): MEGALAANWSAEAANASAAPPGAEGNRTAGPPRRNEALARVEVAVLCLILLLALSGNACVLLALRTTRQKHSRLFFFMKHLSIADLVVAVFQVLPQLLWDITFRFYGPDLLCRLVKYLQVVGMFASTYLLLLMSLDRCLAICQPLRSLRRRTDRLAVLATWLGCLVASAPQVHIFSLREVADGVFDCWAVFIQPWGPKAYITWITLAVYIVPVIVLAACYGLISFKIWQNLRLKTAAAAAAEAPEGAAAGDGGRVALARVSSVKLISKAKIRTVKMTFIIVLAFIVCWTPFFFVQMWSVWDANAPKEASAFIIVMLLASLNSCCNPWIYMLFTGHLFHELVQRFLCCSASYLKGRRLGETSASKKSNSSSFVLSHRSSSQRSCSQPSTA
smiles,measurement,setting,value
Cc1cc(NC(=O)C2CC2)ncc1NC(=O)C12CC3CC(CC(C3)C1)C2,EC50,[1],15.7 µM (not active)
O=C(Cc1cccc2ccccc12)Nc1ccccc1C(=O)O,CC50,[2],28.8 µM (active)
same,IC50,cells [3],24.4 µM (active)
Cc1cc(COc2ccccc2OCCN2CCN(C)CC2)no1,IC50,[4],> 100 µM (not active)
C=CCSc1nc2ccccc2n1C(=O)/C=C/c1cc(OC)c(OC)c(OC)c1,EC50,[1],0.27 µM (active)
same,EC50,BJ [5],2.56 µM (inconclusive)
same,EC50,[6],10.3 µM (inconclusive)
same,EC50,BJ [7],> 150 µM (inconclusive)
same,EC50,BJ [8],3.4 µM (active)
same,EC50,[9],2.66 µM (active)
same,IC50,[10],71.8 µM (inactive)
same,AC50,[11],1.13 µM (active)
same,AC50,[12],63.8 µM (active)
same,AC50,[13],14.2 µM (active)
C=CCn1c(=O)/c(=C/c2cc(OC)c(OC)c(OC)c2)s/c1=C(/C#N)c1nc2ccccc2n1C,IC50,Ephrin type-A receptor 4,> 100 µM (not active)
same,EC50,[14],13.3 µM (active)
COc1cccc(/C=N/Nc2snc(SC)c2C#N)c1O,EC50,BJ [5],27 µM (active)
same,EC50,Vasopressin V1a receptor,> 29.9 µM (not active)
same,EC50,BJ [7],40.4 µM (active)
same,EC50,Oxytocin receptor,> 29.9 µM (not active)
same,EC50,BJ [8],> 150 µM (not active)
same,EC50,[9],48.3 µM (active)
same,AC50,INS1,3.96 µM (active)
C=CCS/C(N)=N\N=C\c1c(O)ccc2ccccc12,EC50,[15],0.313 µM (active)
same,EC50,[16],9.96 µM (active)
same,EC50,[17],0.902 µM (active)
same,EC50,H4,< 0.1 µM (active)
same,EC50,[18],0.324 µM (active)
same,CC50,[19],> 40 µM (active)
same,EC50,[20],0.426 µM (active)
same,IC50,[21],> 122 µM (inactive)
same,EC50,[22],> 67.5 µM (inactive)
same,EC50,cells [23],> 67.5 µM (inactive)
